From patent publication US8716480B2, “7-aryl-1,2,4-triazolo[4,3-a]pyridine derivatives and their use as positive allosteric modulators of mGluR2 receptors” (Janssen Pharmaceuticals, Inc., priority 2009, dated 2014)

Test system: not given
Assay: not given
Conditions: not given

Row | Structure (SMILES) | melting point
1 | CCOCc1nnc2c(C(F)(F)F)c(-c3ccc(Oc4ccnc(C)c4)c(F)c3)ccn12 [Co. No. 36, 3-Ethoxymethyl-7-[3-fluoro-4-(2-methyl-pyridin-4-yloxy)-phenyl]-8-trifluoromethyl-[1,2,4]triazolo[4,3-a]pyridine] | 171.2 °C
2 | Clc1cc(-c2ccn3c(CC4CC4)nnc3c2Cl)ccc1NC1CC1 [Co. No. 6] | > 300 °C
3 | FC(F)(F)c1c(-c2ccc(OC3CCOCC3)c(Cl)c2)ccn2c(CC3CC3)nnc12 [Co. No. 9, 8-Trifluoromethyl-7-[3-chloro-4-(tetrahydro-pyran-4-yloxy)-phenyl]-3-cyclopropylmethyl-[1,2,4]triazolo[4,3-a]pyridine] | 176.9 °C
4 | FC(F)(F)c1c(-c2ccc(NC3CCOCC3)c(Cl)c2)ccn2c(CC3CC3)nnc12 [Co. No. 10, 8-Trifluoromethyl-7-[3-chloro-4-(tetrahydro-pyran-4-ylamino)-phenyl]-3-cyclopropylmethyl-[1,2,4]triazolo[4,3-a]pyridine] | 198.4 °C
5 | O[C@H]1CC[C@H](Nc2ccc(-c3ccn4c(CC5CC5)nnc4c3Cl)cc2Cl)CC1 [Co. No. 12, 8-Cloro-7-[3-chloro-4-(4-hydroxy-cyclohexylamino)-phenyl]-3-cyclopropylmethyl-[1,2,4]triazolo[4,3-a]pyridine] | 273.7 °C
6 | Clc1c(-c2ccc(Oc3ccccc3)cc2)ccn2c(CC3CC3)nnc12 [Co. No. 8, 8-Chloro-3-cyclopropylmethyl-7-(4-phenoxy-phenyl)-1,2,4-triazolo[4,3-a]pyridine] | 156.7 °C
7 | CC(C)Nc1ccc(-c2ccn3c(CC4CC4)nnc3c2C(F)(F)F)cc1F [Co. No. 49, 3-Cyclopropylmethyl-7-[3-fluoro-4-(isopropylamino)-phenyl]-8-trifluoromethyl-[1,2,4]triazolo[4,3-a]pyridine] | 196.9 °C

Molecular target: T1, human mGluR2 receptor (Homo sapiens, UniProt Q14416)
T1 construct: expressed in transfected cells; host or cells: CHO cells (membranes)
T1 sequence (Q14416 19-872): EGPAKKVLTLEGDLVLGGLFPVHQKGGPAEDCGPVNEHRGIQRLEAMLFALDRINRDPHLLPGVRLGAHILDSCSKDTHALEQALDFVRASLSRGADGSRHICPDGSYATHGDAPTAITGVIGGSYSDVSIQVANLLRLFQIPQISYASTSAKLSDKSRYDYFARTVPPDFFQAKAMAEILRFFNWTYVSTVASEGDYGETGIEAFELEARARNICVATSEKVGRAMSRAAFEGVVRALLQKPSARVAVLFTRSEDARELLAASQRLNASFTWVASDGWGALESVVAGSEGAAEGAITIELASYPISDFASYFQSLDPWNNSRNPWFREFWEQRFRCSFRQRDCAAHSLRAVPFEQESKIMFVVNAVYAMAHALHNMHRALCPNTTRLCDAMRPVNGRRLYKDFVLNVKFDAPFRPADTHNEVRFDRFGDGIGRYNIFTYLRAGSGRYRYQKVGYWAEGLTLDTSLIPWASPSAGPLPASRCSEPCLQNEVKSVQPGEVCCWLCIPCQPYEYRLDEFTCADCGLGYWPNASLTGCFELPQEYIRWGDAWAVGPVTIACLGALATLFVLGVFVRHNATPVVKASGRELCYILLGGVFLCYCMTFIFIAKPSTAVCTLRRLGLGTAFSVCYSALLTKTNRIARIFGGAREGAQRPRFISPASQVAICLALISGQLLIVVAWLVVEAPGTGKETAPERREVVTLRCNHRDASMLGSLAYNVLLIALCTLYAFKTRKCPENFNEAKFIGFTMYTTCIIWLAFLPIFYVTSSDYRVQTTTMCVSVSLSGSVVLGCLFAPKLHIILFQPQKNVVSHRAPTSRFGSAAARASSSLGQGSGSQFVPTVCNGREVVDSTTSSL
Assay: [35S]GTPγS binding assay (PAM)
Type: biochemical
Conditions: in presence of glutamate at predetermined EC20; membranes from CHO cells transfected with human mGluR2
Description: [^35S]GTPγS binding assay
The [^35S]GTPγS binding assay is a functional membrane-based assay used to study G-protein coupled receptor (GPCR) function whereby incorporation of a non-hydrolysable form of GTP, [^35S]GTPγS (guanosine 5′-triphosphate, labelled with […] ^35S), is measured.
CHO-cells were cultured to pre-confluence and stimulated with 5 mM butyrate for 24 h, prior to washing in PBS, and then collected by scraping in homogenisation buffer (50 mM Tris-HCl buffer, pH 7.4, 4° C.). Cell lysates were homogenized briefly using an ultra-turrax homogenizer. The homogenate was centrifuged at 16,000 RPM (Sorvall RC-5C plus rotor SS-34) for 10 minutes and the supernatant discarded. The pellet was resuspended in 5 mM Tris-HCl, pH 7.4 and centrifuged again (18,000 RPM, 20 min, 4° C.). The final pellet was resuspended in 50 mM Tris-HCl, pH 7.4 and stored at −80° C. in appropriate aliquots before use. Protein concentration was determined by the Bradford method (Bio-Rad, USA) with bovine serum albumin as standard.
Measurement of mGluR2 positive allosteric modulatory activity of test compounds was performed as follows. Test compounds and glutamate were diluted in assay buffer containing 10 mM HEPES acid, 10 mM HEPES salt, pH 7.4, 100 mM NaCl, 3 mM MgCl2 and 10 μM GDP. Human mGlu2 receptor-containing membranes were thawed on ice and diluted in assay buffer supplemented with 14 μg/ml saponin. Membranes were pre-incubated with compound alone or together with a predefined (˜EC20) concentration of glutamate (PAM assay) for 30 min at 30° C. After addition of [^35S]GTPγS (f.c. 0.1 nM) microplates were shaken briefly and further incubated to allow [^35S]GTPγS incorporation on activation (30 minutes, 30° C.). Final assay mixtures contained 7 μg of membrane protein in 10 mM HEPES acid, 10 mM HEPES salt, pH 7.4, 100 mM NaCl, 3 mM MgCl2, 10 μM GDP and 10 μg/ml saponin. Total reaction volume was […] Reactions were terminated by rapid filtration through Unifilter-96 GF/B filter plates (Packard, Meriden, Conn.) using a 96-well Packard filtermate harvester. Filters were washed 6 times with ice-cold 10 mM NaH2PO4/10 mM Na2HPO4, pH 7.4. Filters were then air-dried, and 40 μl of liquid scintillation cocktail (Microscint-O) was added to each well. Membrane-bound radioactivity was counted in a Microplate Scintillation and Luminescence Counter from Packard.
obtained in the presence of EC20 of mGluR2 agonist glutamate to determine positive allosteric modulation (PAM)—were generated using the Lexis software interface (developed at J&J). Data were calculated as % of the control glutamate response, defined as the maximal response that is generated upon addition of glutamate alone. Sigmoid concentration-response curves plotting these percentages versus the log concentration of the test compound were analyzed using non-linear regression analysis. The concentration producing half-maximal effect is then calculated as EC50.
All compounds were tested in presence of mGluR2 agonist, glutamate at a predetermined EC20 concentration, to determine positive allosteric modulation (GTPγS-PAM). pEC50 values were calculated from a concentration-response experiment of at least 10 concentrations.

Row | Structure (SMILES) | GTPγS -hR2 PAM pEC50
8 | CC(C)Nc1ccc(-c2ccn3c(CC4CC4)nnc3c2Cl)cc1Cl [Co. No. 51] | 7.13
9 | Cc1cc(Oc2ccc(-c3ccn4c(CC5CC5)nnc4c3C(F)(F)F)cc2F)cc(C)n1 [Co. No. 38] | 7.16
10 | O[C@H]1CC[C@H](Nc2ccc(-c3ccn4c(CC(F)(F)F)nnc4c3Cl)cc2Cl)CC1 [Co. No. 29] | 7.40
11 | FC(F)(F)c1c(-c2ccc(NC3CC3)c(Cl)c2)ccn2c(CC3CC3)nnc12 [Co. No. 31] | 8.15
12 | O[C@H]1CC[C@@H](Oc2ccc(-c3ccn4c(CC(F)(F)F)nnc4c3Cl)cc2Cl)CC1 [Co. No. 26] | 7.01
13 | Clc1c(-c2ccc(N3CCOCC3)nc2)ccn2c(CC3CC3)nnc12 [Co. No. 67] | 5.61
14 | CC(C)Nc1ccc(-c2ccn3c(CC4CC4)nnc3c2C(F)(F)F)cc1Cl [Co. No. 52] | 7.77
15 | CCOCc1nnc2c(C(F)(F)F)c(-c3ccc(Oc4cc(C)nc(C)c4)c(F)c3)ccn12 [Co. No. 37] | 6.63
16 | Clc1c(-c2ccc(Oc3ccccc3)cc2)ccn2c(C3CCC3)nnc12 [Co. No. 17] | 6.88
17 | FC(F)(F)c1c(-c2ccc(N3CCCCC3)nc2)ccn2c(CC3CC3)nnc12 [Co. No. 70] | 6.67
18 | O[C@H]1CC[C@H](Nc2ccc(-c3ccn4c(CC5CC5)nnc4c3Cl)cc2Cl)CC1 [Co. No. 21] | 7.11
19 | Clc1c(-c2ccccc2)ccn2c(CN3CCOc4ccccc4C3)nnc12 [Co. No. 28] | 6.05
20 | CCOCc1nnc2c(C(F)(F)F)c(-c3ccc(Oc4ccc(C)nc4C)c(F)c3)ccn12 [Co. No. 44] | 7.51
21 | Cc1ccc(CNc2ccc(-c3ccn4c(CC5CC5)nnc4c3C(F)(F)F)cc2F)cn1 [Co. No. 78] | 7.98
22 | Cc1cc(Oc2ccc(-c3ccn4c(CC(F)(F)F)nnc4c3Cl)cc2Cl)ccn1 [Co. No. 40] | 6.78
23 | CC1(O)CCN(Cc2ccc(-c3ccn4c(CC5CC5)nnc4c3C(F)(F)F)cc2Cl)CC1 [Co. No. 72] | 6.49
24 | Clc1c(-c2ccc(N3CCCCC3)nc2)ccn2c(CC3CC3)nnc12 [Co. No. 69] | 6.53
25 | CCOCc1nnc2c(C)c(-c3ccc(Oc4ccc(C)nc4C)c(Cl)c3)ccn12 [Co. No. 65] | 7.26

Row | Structure (SMILES) | GTPγS -hR2 PAM pEC50
26 | Fc1cc(-c2ccn3c(CC4CC4)nnc3c2Cl)ccc1NC1CC1 [Co. No. 25] | 7.20
27 | CC(C)Nc1ccc(-c2ccn3c(CC4CC4)nnc3c2Cl)cn1 [Co. No. 66] | 6.51
28 | FC(F)(F)c1c(-c2ccc(CN3CCOCC3)c(Cl)c2)ccn2c(CC3CC3)nnc12 [Co. No. 71] | 7.02
29 | CCOCc1nnc2c(Cl)c(-c3ccc(Oc4ccc(C)nc4C)c(F)c3)ccn12 [Co. No. 33] | 7.13
30 | FC(F)(F)c1c(-c2ccc(CNC3CCOCC3)c(Cl)c2)ccn2c(CC3CC3)nnc12 [Co. No. 74] | 6.21
31 | Cc1ccc(Oc2ccc(-c3ccn4c(CC5CC5)nnc4c3C)cc2Cl)c(C)n1 [Co. No. 61] | 7.70
32 | Cc1ccc(Oc2ccc(-c3ccn4c(CC5CC5)nnc4c3C(F)(F)F)cc2Cl)c(C)n1 [Co. No. 53] | 8.79
33 | FC(F)(F)c1c(-c2ccc(N3CCOCC3)nc2)ccn2c(CC3CC3)nnc12 [Co. No. 68] | 5.90
34 | CC(C)Nc1ccc(-c2ccn3c(CC4CC4)nnc3c2Cl)cc1F [Co. No. 50] | 6.65
35 | FC(F)(F)C1CCN(Cc2ccc(-c3ccn4c(CC5CC5)nnc4c3Cl)cc2)CC1 [Co. No. 19] | 6.13
36 | COc1ccc(CNc2ccc(-c3ccn4c(CC5CC5)nnc4c3Cl)cc2)cn1 [Co. No. 59] | 7.15
37 | O[C@H]1CC[C@H](Oc2ccc(-c3ccn4c(CC(F)(F)F)nnc4c3Cl)cc2Cl)CC1 [Co. No. 27] | 6.80
38 | Cc1ccc(Oc2ccc(-c3ccn4c(CC(F)(F)F)nnc4c3Cl)cc2Cl)c(C)n1 [Co. No. 55] | 8.00
39 | O[C@]1(C2CC2)CC[C@H](Nc2ccc(-c3ccn4c(CC5CC5)nnc4c3C(F)(F)F)cc2Cl)CC1 [Co. No. 47] | 8.79
40 | Cc1cc(Oc2ccc(-c3ccn4c(CCC5CC5)nnc4c3Cl)cc2F)ccn1 [Co. No. 41] | 6.54
41 | Clc1cc(-c2ccn3c(CC4CC4)nnc3c2Cl)ccc1OC1CCOCC1 [Co. No. 23] | 6.53
42 | FC(F)(F)Cc1nnc2c(Cl)c(-c3ccc(NC4CCOCC4)c(Cl)c3)ccn12 [Co. No. 30] | 6.66

Same assay, conditions: in presence of glutamate at predetermined EC20; membranes from CHO cells transfected with human mGluR2; read-out: GTPγS -hR2 PAM pEC50 (converted)

Row | Structure (SMILES) | EC50
43 | CCOCc1nnc2c(C(F)(F)F)c(-c3ccc(Oc4ccnc(C)c4)c(F)c3)ccn12 [Co. No. 36, 3-Ethoxymethyl-7-[3-fluoro-4-(2-methyl-pyridin-4-yloxy)-phenyl]-8-trifluoromethyl-[1,2,4]triazolo[4,3-a]pyridine] | 219 nM
44 | Clc1cc(-c2ccn3c(CC4CC4)nnc3c2Cl)ccc1NC1CC1 [Co. No. 6] | 36.3 nM
45 | FC(F)(F)c1c(-c2ccc(OC3CCOCC3)c(Cl)c2)ccn2c(CC3CC3)nnc12 [Co. No. 9, 8-Trifluoromethyl-7-[3-chloro-4-(tetrahydro-pyran-4-yloxy)-phenyl]-3-cyclopropylmethyl-[1,2,4]triazolo[4,3-a]pyridine] | 40.7 nM
46 | FC(F)(F)c1c(-c2ccc(NC3CCOCC3)c(Cl)c2)ccn2c(CC3CC3)nnc12 [Co. No. 10, 8-Trifluoromethyl-7-[3-chloro-4-(tetrahydro-pyran-4-ylamino)-phenyl]-3-cyclopropylmethyl-[1,2,4]triazolo[4,3-a]pyridine] | 17 nM
47 | O[C@H]1CC[C@H](Nc2ccc(-c3ccn4c(CC5CC5)nnc4c3Cl)cc2Cl)CC1 [Co. No. 12, 8-Cloro-7-[3-chloro-4-(4-hydroxy-cyclohexylamino)-phenyl]-3-cyclopropylmethyl-[1,2,4]triazolo[4,3-a]pyridine] | 41.7 nM
48 | CC(C)Nc1ccc(-c2ccn3c(CC4CC4)nnc3c2C(F)(F)F)cc1F [Co. No. 49, 3-Cyclopropylmethyl-7-[3-fluoro-4-(isopropylamino)-phenyl]-8-trifluoromethyl-[1,2,4]triazolo[4,3-a]pyridine] | 60.3 nM
49 | Clc1c(-c2ccccc2)ccn2c(CN3CCC(c4ccccc4)CC3)nnc12 [Co. No. 5] | 191 nM
50 | OC1CCC(Nc2ccc(-c3ccn4c(CC5CC5)nnc4c3Cl)cc2Cl)CC1 (single isomer, unassigned) [Co. No. 13-a, 7-[3-Chloro-4-(4-hydroxy-cyclohexylamino)-phenyl]-8-chloro-3-cyclopropylmethyl-[1,2,4]triazolo[4,3-a]pyridine] | 22.9 nM
